Experiments:
[1] = system: β2AR and IR receptor complexes; assay: BRET^2 saturation assay with agonist stimulation, β2AR and IR homo- and heteromers in HEK-293 cells; details: data not shown
β2AR-RLuc = β2AR-RLuc fusion construct; ref Vrecl et al. [47]; cited from earlier work
HA-β2AR [2] = molecular target: T1, HA-β2AR (Homo sapiens, UniProt P07550); assay: whole-cell radioligand binding assay, [125I]-iodopindolol displacement, HA-β2AR; details: HEK-293 cells expressing HA-β2AR alone or with IR
T1 construct: host or cells: HEK-293
Protocol: To establish a relationship between the luminescence/fluorescence signals generated by RLuc8 and GFP^2-tagged β2ARs and cell-surface receptor number, radioligand binding assays were carried out on whole cells as previously described [47]. […] An aliquot of cells (∼5×10^5) from each transfection was also transferred into a 60-mm dish for total luminescence/fluorescence measurements as described above. […] Determination of the radioactivity levels was performed in triplicate. Binding parameters were determined from displacement curves generated by a sigmoidal dose-response curve fit (GraphPad Prism 5.0). Receptor density (Bmax), expressed as the receptor number per cell, was calculated as previously described by Ramsay et al. [48]. Whole-cell radioligand binding assays were also performed with cells expressing β2AR alone or in combination with IR.

HA-β2AR [3] = molecular target: T1, HA-β2AR; assay: HA-β2AR internalization quantified by ELISA in HEK-293 cells; format: cell-based
Protocol: ELISA assays for the measurement of surface-expressed HA-β2AR and quantification of receptor internalization were performed as described previously. Briefly, HEK-293 cells were transiently transfected with either β2AR-RLuc8 alone or β2AR-RLuc8 and IR-GFP^2. One microgram of each receptor was used, and the total amount of cDNA used for transfection was kept uniform by adding empty pcDNA3.1 vector. […] After 48 h, cells were first subjected to a 2-h starvation period, and then were treated as required in HEPES-modified DMEM with 0.1% BSA for 30 min at 37°C before fixing with 4% paraformaldehyde for 20 min at 4°C. Cells were then washed 3 times in PBS and blocked (PBS containing 1% BSA) for 60 min at room temperature. Cells were kept at room temperature for all of the subsequent steps. First, cells were incubated for 2 h with anti-HA antibody at a 1∶600 dilution. After 3 washes, cells were incubated with anti-rat horseradish peroxidase-conjugated antibody at a 1∶1000 dilution. After extensive washing, the reaction was developed using the 3, 3′, 5, 5′-tetra-methylbenzidine (TMB) liquid substrate system. […] The absorbances were measured at 450 nm using the microplate reader Rosys Anthos 2010 (Anthos Labtec Instruments, Wals, Austria). […]
[…]. Data are expressed as the means ± S.E. from three independent experiments performed in triplicate. […]

[4] = system: β2AR in epidermoid carcinoma A431 cells; design: method as in PMID 14709719; details: cited from earlier work

| Compound | change in the BRET^2 signal on agonist stimulation [1] | IC50 (β2AR-RLuc) [nM] | competition for binding against [125I]-iodopindolol (HA-β2AR [2]) | amount of surface-expressed β2AR lost to internalization in response to insulin (HA-β2AR [3]) [%] | β2AR internalization (ELISA, Figure S1) (HA-β2AR [3]; insulin 0.1 µM, 30 min, 37°C) | amount of surface-expressed β2AR lost to internalization in response to insulin [4] [%] |
| --- | --- | --- | --- | --- | --- | --- |
| CC(C)NCC(O)c1ccc(O)c(O)c1 (stereo not shown) [isoproterenol, reference compound] | did not promote any detectable change |  |  |  |  |  |
| CC(C)NCC(O)COc1cccc2[nH]ccc12 (stereo not shown) [pindolol] |  | 0.94 ± 0.06 |  |  |  |  |
| insulin | did not promote any detectable change |  | neither competed for binding | ~15 | did not induce marked β2AR internalization | ~30 |

From publication PMC4234468 (PLoS ONE, 2014)
